Results taken from US12371454B2, “Cyclic peptide compound having Kras inhibitory action” (priority 2019, dated 2025).
Starred links: 1 amine or outer side, 2 acyl side, 3 side chain; linkers in the order of their positions; H or OH if unused. Positions of bridges follow the written chain, without caps; N, C: chain ends. Non-standard residues stand in square brackets, D forms with d. Residues, ends and D or L forms follow the SMILES beside them. *: point of attachment. hPhe(3-Cl-4-CF3) = N[C@@H](CCc1ccc(C(F)(F)F)c(Cl)c1)C(=O)O; hPhe(3-F,4-CF3) = N[C@@H](CCc1ccc(C(F)(F)F)c(F)c1)C(=O)O; X12 = CN([C@@H](Cc1ccc(C(F)(F)F)nc1)C(=O)[*:2])[*:1]; hPhe(4-CF3) = N[C@@H](CCc1ccc(C(F)(F)F)cc1)C(=O)O; NMePhe(4-Cl) = CN[C@@H](Cc1ccc(Cl)cc1)C(=O)O; Phe(3,5-F2) = N[C@@H](Cc1cc(F)cc(F)c1)C(=O)O; NMePhe(4-Me) = CN[C@@H](Cc1ccc(C)cc1)C(=O)O; NMedβ3hAla = C[C@H](CC(=O)[*:2])N(C)[*:1]; Phe(3-Cl) = N[C@@H](Cc1cccc(Cl)c1)C(=O)O; hPhe(4-F) = N[C@@H](CCc1ccc(F)cc1)C(=O)O; NMeGly(cPent) = CN[C@H](C(=O)O)C1CCCC1; Phe(3-I) = N[C@@H](Cc1cccc(I)c1)C(=O)O; X26 = O=C([C@@H]1CCC[C@H]1N[*:1])[*:2]; NMeCha = CN[C@@H](CC1CCCCC1)C(=O)O; NMeGly(cPr) = CN[C@H](C(=O)O)C1CC1; NMehLeu = CN[C@@H](CCC(C)C)C(=O)O; NMeChg = CN[C@H](C(=O)O)C1CCCCC1; NMeF = CN[C@@H](Cc1ccccc1)C(=O)O; NMeI = CC[C@H](C)[C@H](NC)C(=O)O; hPhe = N[C@@H](CCc1ccccc1)C(=O)O; N(CH2CH2)2CF2 = FC1(F)CCN(*)CC1; NMeD = CN[C@@H](CC(=O)O)C(=O)O; NMeL = CN[C@@H](CC(C)C)C(=O)O; NMeV = CN[C@H](C(=O)O)C(C)C; d(β3hA) = C[C@@H](N)CC(=O)O; NMeS = CN[C@@H](CO)C(=O)O; Pip = O=C(O)[C@@H]1CCCCN1; Morpholide = C1CN(*)CCO1; NMeA = CN[C@@H](C)C(=O)O; NMeAib = CNC(C)(C)C(=O)O; Piperidide = C1CCN(*)CC1; Pyrrolidide = C1CCN(*)C1; Ac5c = NC1(C(=O)O)CCCC1; Aze = O=C(O)[C@@H]1CCN1; Aib = CC(C)(N)C(=O)O; Isopentyl = CC(C)CC*; NEtG = CCNCC(=O)O; Sar = CNCC(=O)O; Propyl = CCC*

target: T1, Kras and SOS1 (biotin-tagged human Kras loaded with GDP, His-tagged human SOS1) (Homo sapiens, UniProt P01116, G12D); assay: Protein-protein interaction inhibition between Kras and SOS1 (KrasGl2D-SOS PPI) using AlphaScreen; assay type: binding; settings: AlphaScreen; biotin-tagged human Kras loaded with GDP, His-tagged human SOS1; read-out: KRAS G12D-SOS PPI IC50
T1 construct: made in house; host or cells: E. coli (stated for Kras only)
Description: Protein-Protein Interaction Inhibition Between Kras and SOS1 (KrasGl2D-SOS PPI) Using AlphaScreen
Protein-protein interaction inhibition (PPI) between Kras and SOS1 was measured by energy transfer from nickel-conjugated donor beads to streptavidin-conjugated acceptor beads using biotin-tagged human Kras expressed in E. coli and loaded with GDP after purification and His-tagged human SOS1 enzyme. This measurement utilizes the phenomenon in which donor beads are irradiated with light at 680 nm, such that energy is transferred to acceptor beads through singlet oxygen and light at 520-620 nm is detected from the acceptor beads.
Inhibition of binding between K-ras and SOS1 is known to inhibit signaling downstream of Kras.

T1 sequence (P01116 1-188 isoform P01116-2 G12D): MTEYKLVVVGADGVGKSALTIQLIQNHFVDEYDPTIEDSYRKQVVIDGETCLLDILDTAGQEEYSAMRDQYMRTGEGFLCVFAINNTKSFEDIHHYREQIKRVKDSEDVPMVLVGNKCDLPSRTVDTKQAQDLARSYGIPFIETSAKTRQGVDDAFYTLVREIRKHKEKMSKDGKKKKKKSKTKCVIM

SMILES	IC50 [nM]
CC[C@H](C)[C@@H]1NC(=O)[C@H](CC(C)C)N(C)C(=O)C[C@@H](C(=O)N(C)C)N(C)C(=O)[C@H]([C@@H](C)CC)N(C)C(=O)[C@H](C(C)C)NC(=O)[C@H](C)N(C)C(=O)[C@H](CCc2ccc(C(F)(F)F)c(Cl)c2)NC(=O)CN(C)C(=O)[C@H](Cc2ccc(C)cc2)N(C)C(=O)[C@@H]2CCN2C(=O)[C@H](C)N(C)C1=O [Compound 4] ([NMeL]I[NMeA][Aze][NMePhe(4-Me)][Sar][hPhe(3-Cl-4-CF3)][NMeA]V[NMeI][NMeD]-NMe2; lactam N-11)	13
CC[C@H](C)[C@@H]1NC(=O)[C@H](CC(C)C)N(C)C(=O)C[C@@H](C(=O)N2CCCCC2)N(C)C(=O)[C@H](C2CCCCC2)N(C)C(=O)C2(CCCC2)NC(=O)[C@H](Cc2ccc(C(F)(F)F)nc2)N(C)C(=O)[C@H](CCc2ccc(C(F)(F)F)c(Cl)c2)NC(=O)CN(C)C(=O)[C@H](CC2CCCCC2)N(C)C(=O)[C@@H]2CCN2C(=O)CN(C)C1=O [Compound 6] ([NMeL]I[Sar][Aze][NMeCha][Sar][hPhe(3-Cl-4-CF3)][X12][Ac5c][NMeChg][NMeD]-Piperidide; lactam N-11)	13
COC[C@@H]1NC(=O)[C@H](CC(C)C)N(C)C(=O)C[C@@H](C(=O)N2CCCCC2)N(C)C(=O)[C@H](C(C)C)N(C)C(=O)C2(CCCC2)NC(=O)[C@@H]2CCCN2C(=O)[C@H](CCc2ccc(C(F)(F)F)c(Cl)c2)NC(=O)CN(C)C(=O)[C@H](CC2CCCCC2)N(C)C(=O)[C@@H]2CCN2C(=O)[C@H](C)N(C)C1=O [Compound 7] ([NMeL]S(Me)[NMeA][Aze][NMeCha][Sar][hPhe(3-Cl-4-CF3)]P[Ac5c][NMeV][NMeD]-Piperidide; lactam N-11)	18
CCCOC[C@H]1C(=O)N(C)CC(=O)N[C@@H](CCc2ccc(C(F)(F)F)c(F)c2)C(=O)N2CCC[C@H]2C(=O)NC2(CCCC2)C(=O)N(C)[C@@H](C2CCCC2)C(=O)N(C)[C@H](C(=O)N2CCOCC2)CC(=O)N(C)[C@@H](CC(C)C)C(=O)N[C@@H]([C@@H](C)CC)C(=O)N(C)[C@@H](C)C(=O)N2CC[C@H]2C(=O)N1C [Compound 9, (5S,8S,11S,15S,18S,23aS,29S,35S,37aS)-8-((S)-sec-butyl)-18-cyclopentyl-29-(3-fluoro-4-(trifluoromethyl)phenethyl)-11-isobutyl-5,6,12,16,19,33,36-heptamethyl-15-(morpholine-4-carbonyl)-35-(propoxymethyl)docosahydro-2H,4H-spiro[azeto[2,1-u]pyrrolo[2,1-i][1,4,7,10,13,16,19,22,25,28,31]undecaazacyclotetratriacontine-21,1′-cyclopentan]-4,7,10,13,17,20,23,28,31,34,37(14H,22H)-undecaone] ([NMeL]I[NMeA][Aze][NMeS](Propyl)[Sar][hPhe(3-F,4-CF3)]P[Ac5c][NMeGly(cPent)][NMeD]-Morpholide; lactam N-11)	1.5
CC[C@H](C)[C@@H]1NC(=O)[C@H](CC(C)C)N(C)C(=O)C[C@@H](C(=O)N2CCCCC2)N(C)C(=O)[C@H](CC(C)C)NC(=O)C(C)(C)N(C)C(=O)[C@H](CCc2ccccc2)NC(=O)[C@H](Cc2cccc(I)c2)NC(=O)CN(C)C(=O)[C@H](Cc2ccc(C)cc2)N(C)C(=O)CN(C)C(=O)CN(C)C1=O [Compound 13] ([NMeL]I[Sar][Sar][NMePhe(4-Me)][Sar][Phe(3-I)][hPhe][NMeAib]L[NMeD]-Piperidide; lactam N-11)	38
CC[C@H](C)[C@@H]1NC(=O)[C@H](CC(C)C)N(C)C(=O)C[C@@H](C)NC(=O)[C@H](C2CC2)N(C)C(=O)C2(CCCC2)NC(=O)[C@@H]2CCCN2C(=O)[C@H](CCc2ccc(C(F)(F)F)c(Cl)c2)NC(=O)CN(C)C(=O)[C@H](CC2CCCCC2)N(C)C(=O)CN(C)C(=O)CN(C)C1=O [Compound 14] (cyclo([Ac5c][NMeGly(cPr)][d(β3hA)][NMeL]I[Sar][Sar][NMeCha][Sar][hPhe(3-Cl-4-CF3)]P))	110
CC[C@H](C)[C@@H]1NC(=O)[C@H](C)N(C)C(=O)C[C@@H](C)NC(=O)[C@H](CC(C)C)N(C)C(=O)[C@H](Cc2ccccc2)N(C)C(=O)[C@@H]2CCCN2C(=O)[C@H](CCc2ccc(C(F)(F)F)cc2)NC(=O)CN(C)C(=O)[C@H]([C@@H](C)CC)N(C)C(=O)CN(C)C(=O)CN(C)C1=O [Compound 18] (cyclo(I[Sar][Sar][NMeI][Sar][hPhe(4-CF3)]P[NMeF][NMeL][d(β3hA)][NMeA]))	230
CC[C@H](C)[C@@H]1NC(=O)[C@H](C)N(C)C(=O)C[C@@H](C(=O)N2CCCC2)NC(=O)[C@H](C(C)C)N(C)C(=O)[C@H](Cc2ccccc2)N(C)C(=O)[C@H](Cc2ccccc2)NC(=O)[C@H](Cc2cc(F)cc(F)c2)NC(=O)CN(C)C(=O)[C@H](Cc2ccc(Cl)cc2)N(C)C(=O)CN(C)C(=O)CN(C)C1=O [Compound 21] ([NMeA]I[Sar][Sar][NMePhe(4-Cl)][Sar][Phe(3,5-F2)]F[NMeF][NMeV]D-Pyrrolidide; lactam N-11)	250
CC[C@H](C)[C@@H]1NC(=O)[C@H](CC(C)C)N(C)C(=O)C[C@@H](C)N(C)C(=O)[C@H](CCC(C)C)N(C)C(=O)C2(CCCC2)NC(=O)[C@@H]2CCCN2C(=O)[C@H](CCc2ccc(C(F)(F)F)c(Cl)c2)NC(=O)CN(C)C(=O)[C@H](CC2CCCCC2)N(C)C(=O)CN(C)C(=O)CN(C)C1=O [Compound 22] (cyclo([Ac5c][NMehLeu][NMedβ3hAla][NMeL]I[Sar][Sar][NMeCha][Sar][hPhe(3-Cl-4-CF3)]P))	110
CC[C@H](C)[C@@H]1NC(=O)[C@H](CC(C)C)N(C)C(=O)C[C@@H](C(=O)N(C)C)N(C)C(=O)[C@H](C2CCCC2)N(C)C(=O)[C@H](C(C)C)NC(=O)[C@@H](C)NC(=O)[C@H](CCc2ccc(C(F)(F)F)c(Cl)c2)NC(=O)CN(C)C(=O)[C@H](CC2CCCCC2)N(C)C(=O)[C@@H]2CCN2C(=O)[C@H](C)N(C)C1=O [Compound 24] ([NMeL]I[NMeA][Aze][NMeCha][Sar][hPhe(3-Cl-4-CF3)][dA]V[NMeGly(cPent)][NMeD]-NMe2; lactam N-11)	25
CC[C@H](C)[C@@H]1NC(=O)[C@H](C)N(C)C(=O)[C@@H]2CCC[C@H]2NC(=O)[C@H](CC(C)C)N(C)C(=O)[C@H](Cc2ccccc2)N(C)C(=O)[C@@H]2CCCN2C(=O)[C@H](CCc2ccc(C(F)(F)F)cc2)NC(=O)CN(C)C(=O)[C@H](Cc2ccc(Cl)cc2)N(C)C(=O)CN(C)C(=O)CN(C)C1=O [Compound 25] (cyclo(I[Sar][Sar][NMePhe(4-Cl)][Sar][hPhe(4-CF3)]P[NMeF][NMeL][X26][NMeA]))	150
CC[C@H](C)[C@@H]1NC(=O)[C@H](CC(C)C)N(C)C(=O)C[C@@H](C(=O)N2CCCC2)N(C)C(=O)[C@H](C2CCCC2)N(C)C(=O)C2(CCCC2)NC(=O)[C@H](CC(=O)N2CCC(F)(F)CC2)N(C)C(=O)[C@H](CCc2ccc(C(F)(F)F)c(Cl)c2)NC(=O)CN(C)C(=O)[C@H](CC2CCCCC2)N(C)C(=O)[C@@H]2CCN2C(=O)[C@H](C)N(C)C1=O [Compound 26] ([NMeL]I[NMeA][Aze][NMeCha][Sar][hPhe(3-Cl-4-CF3)][NMeD](N(CH2CH2)2CF2)[Ac5c][NMeGly(cPent)][NMeD]-Pyrrolidide; lactam N-11)	4.3
CC[C@H](C)[C@@H]1NC(=O)[C@H](CC(C)C)N(C)C(=O)C[C@@H](C(=O)N(C)C)N(C)C(=O)[C@H]([C@@H](C)CC)N(C)C(=O)C2(CCCC2)NC(=O)[C@H](COCCC(C)C)N(C)C(=O)[C@H](CCc2ccc(C(F)(F)F)c(Cl)c2)NC(=O)CN(C)C(=O)[C@H](Cc2ccc(C)cc2)N(C)C(=O)[C@@H]2CCN2C(=O)[C@H](C)N(C)C1=O [Compound 27, (3S,6S,9S,13S,16S,22S,25S,31S,34S)-25-[2-[3-chloro-4-(trifluoromethyl)phenyl]ethyl]-9-isobutyl-22-(isopentyloxymethyl)-N,N,3,4,10,14,17,23,29,32-decamethyl-6,16-bis[(1S)-1-methylpropyl]-2,5,8,11,15,18,21,24,27,30,33-undecaoxo-31-(p-tolylmethyl)spiro[1,4,7,10,14,17,20,23,26,29,32-undecazabicyclo[32.2.0]hexatriacontane-19,1′-cyclopentane]-13-carboxamide] ([NMeL]I[NMeA][Aze][NMePhe(4-Me)][Sar][hPhe(3-Cl-4-CF3)][NMeS](Isopentyl)[Ac5c][NMeI][NMeD]-NMe2; lactam N-11)	3.3
CC[C@H](C)[C@@H]1NC(=O)[C@H](C)N(C)C(=O)C[C@@H](C)NC(=O)[C@H](CC(C)C)N(C)C(=O)C(C)(C)NC(=O)[C@H](CC(C)C)N(C)C(=O)[C@H](CCc2ccc(F)cc2)NC(=O)CN(C)C(=O)[C@H](Cc2ccc(Cl)cc2)N(C)C(=O)CN(C)C(=O)CN(C)C1=O [Compound 28] (cyclo([Aib][NMeL][d(β3hA)][NMeA]I[Sar][Sar][NMePhe(4-Cl)][Sar][hPhe(4-F)][NMeL]))	160
CC[C@H](C)[C@@H]1NC(=O)[C@H](C)N(C)C(=O)C[C@@H](C(=O)N2CCCC2)NC(=O)[C@H](C(C)C)N(C)C(=O)[C@H](Cc2ccccc2)N(C)C(=O)[C@H](Cc2ccccc2)NC(=O)[C@H](Cc2cccc(Cl)c2)NC(=O)CN(CC)C(=O)[C@H](Cc2ccc(Cl)cc2)N(C)C(=O)CN(C)C(=O)CN(C)C1=O [Compound 29] ([NMeA]I[Sar][Sar][NMePhe(4-Cl)][NEtG][Phe(3-Cl)]F[NMeF][NMeV]D-Pyrrolidide; lactam N-11)	320
CC[C@H](C)[C@@H]1NC(=O)[C@@H]2CCCCN2C(=O)C[C@@H](C)NC(=O)[C@H](CC(C)C)N(C)C(=O)C(C)(C)NC(=O)[C@H](CC(C)C)N(C)C(=O)[C@H](CCc2ccc(C(F)(F)F)cc2)NC(=O)CN(C)C(=O)[C@H](CC2CCCCC2)N(C)C(=O)CN(C)C(=O)CN(C)C1=O [Compound 31] (cyclo([Aib][NMeL][d(β3hA)][Pip]I[Sar][Sar][NMeCha][Sar][hPhe(4-CF3)][NMeL]))	380
